Source: patent US20200068890A1 (Person to Whom the Inventor is Obligated to Assign, priority 2017, published 2020)
Where two headings read alike, the source gives them in different places.

How the values were obtained:
A. thaliana DHDPS = system: T1, A. thaliana DHDPS; experiment: DHDPS-DHDPR coupled assay, dose response inhibitor assay; assay type: biochemical, Arabidopsis thaliana
T1 construct: AtDHDPS|10|0.00008; no borders, domain or tags given
Experimental: DHDPS enzyme activity was determined using the coupled assay in a Cary 4000 UV/Vis spectrophotometer at 340 nm in 1 cm acrylic cuvettes. A master mix was prepared for each reaction as per Table 1. Reaction mixtures containing enzymes, pyruvate, buffer and NADPH were incubated at 30° C. for 12 mins before the addition of ASA to initiate the reaction. The oxidation of NADPH to NADP^+ was then monitored at 340 nm at 30° C. as a function of time. The initial rate (ΔA340·min^−1) was calculated from the slope of the linear portion of the A340 versus time profile. All experiments were carried out in triplicate. The enzyme kinetic parameters, including KM values, were determined using the Michaelis-Menten equation (Equation 1). Unless otherwise stated, all kinetic data were fitted using the built-in equations in GraphPad Prism.
To determine/C50 values for the inhibitors, A. thaliana DHDPS enzyme activity was measured using the coupled assay (detailed above) in the presence of increasing concentrations of inhibitor. The initial rate was then plotted as a function of the log 10 of the inhibitor concentration and the/C50 determined according to Equation 2.

[1] = system: Gram-positive and Gram-negative bacterial species; experiment: Broth microdilution MIC, panel summary; assay type: cell-based; settings: read-out: MIC values
Experimental: (§1) Assays were carried out by a broth microdilution method using a 96-well plate according to guidelines defined by the European Committee on Antimicrobial Susceptibility Testing as described here. Overnight cultures of strains were grown in tryptic soy broth (TSB) at 37° C. The overnight cultures were diluted to a concentration of 1×10^6 bacteria/ml (OD600=0.01) in TSB media. To each well on 96 well plates, 100 μl of bacterially infected media at a concentration of 1×10^6/ml and compounds at various concentrations were added. An uninfected control (i.e. no bacteria) was also included. The plates were incubated at 37° C. wrapped in parafilm for 20 hrs. The growth was assessed by measuring the absorbance at 600 nm. The minimum inhibitory concentration (MIC) was determined to be the lowest concentration of compound that inhibits visible bacterial growth.

MSSA 9144 = experiment: Broth microdilution MIC; assay type: cell-based; settings: Staphylococcus aureus
Experimental: as §1

Klebsiella pneumoniae M6 = experiment: Broth microdilution MIC; assay type: cell-based
Experimental: as §1

[2] = system: Klebsiella pneumoniae 13368; experiment: Broth microdilution MIC; assay type: cell-based
Experimental: as §1

[3] = system: Enterococcus faecium 12204; experiment: Broth microdilution MIC; assay type: cell-based
Experimental: as §1

[4] = system: Pseudomonas aeruginosa PA01; experiment: Broth microdilution MIC; assay type: cell-based
Experimental: as §1

[5] = system: Acinetobacter baumannii 17978; experiment: Broth microdilution MIC; assay type: cell-based
Experimental: as §1

[6] = system: Escherichia coli NCTC12923; experiment: Broth microdilution MIC; assay type: cell-based
Experimental: as §1

[7] = system: Pseudomonas aeruginosa 13437; experiment: Broth microdilution MIC; assay type: cell-based
Experimental: as §1

EMRSA-15 = experiment: Broth microdilution MIC; assay type: cell-based
Experimental: as §1

[8] = system: Enterococcus faecalis 12201; experiment: Broth microdilution MIC; assay type: cell-based
Experimental: as §1

EMRSA-16 = experiment: Broth microdilution MIC; assay type: cell-based
Experimental: as §1

[9] = system: Acinetobacter baumannii AYE; experiment: Broth microdilution MIC; assay type: cell-based
Experimental: as §1

[10] = system: Enterococcus faecalis 775; experiment: Broth microdilution MIC; assay type: cell-based
Experimental: as §1

[11] = system: human kidney cells (HEK293); experiment: MTT viability assay; settings: for % Viability Remaining 1 / % Viability Remaining 2 / % Viability Remaining 3: 48 hrs
Experimental: (§2) Cells were harvested and resuspended in growth media (5-10 ml) to count. Cells were diluted to the appropriate concentration (5×10^3), and seeded into 96-well plates as follows: (a) 50 μl of cells per well, (b) 100 μl of growth media in the Blank wells, (c) 100 μl PBS in outer wells (to prevent dehydration of media from the cells). Cells were incubated overnight at 37° C. (5% CO2).
(§3) Compounds were prepared as serial dilutions in growth media. Each treatment concentration was performed in triplicate. 50 μl/well of prepared compound was added to cells.
(§4) A no treatment triplicate (100% viability) was also included by adding 50 μl of growth media to cells. Plates were returned to the incubator for 48 hrs.
(§5) MTT powder in 1×PBS was prepared at 5 mg/ml and filter sterilised. MTT was added to serum-free media to a final concentration of 1 mg/ml. 100 μl of the MTT solution (1 mg/ml) was added to each well, including 0 μM and blank wells. Plates were incubated at 37° C. in incubator for 3 hrs. Following incubation, the media was removed from wells without disrupting the purple crystals formed. 100 μl of DMSO was added to each well using a multichannel pipette. The plates were shaken on the plate shaker until all the crystals have dissolved. The absorbance was measured at 570 nm using a plate reader. The data was analysed using Microsoft Excel. For each treatment concentration the average was calculated, the blank was subtracted and the cell viability was determined as a percentage of the no treatment control (DMSO vehicle control).

[12] = system: human liver cells (HepG2); experiment: MTT viability assay; settings: for % viability 1 / % viability 2 / % viability 3: 48 hrs
Experimental: as §2, §3, §4, §5

With `O=C(O)CN1C(=O)S/C(=C\c2ccc(F)cc2)C1=O` [Compound 1, (Z)-2-(5-(4-Fluorobenzylidene)-2,4-dioxothiazolidin-3-yl)acetic Acid] the IC50 (A. thaliana DHDPS) was 92.4 µM, the MIC [1] was > 64 µg/mL and the MIC (MSSA 9144; MSSA 9144, replicate 1, read-out: MIC #1) was > 64 µg/mL. The MIC (MSSA 9144; MSSA 9144, replicate 2, read-out: MIC #2) was > 64 µg/mL, the MIC (MSSA 9144; MSSA 9144, replicate 3, read-out: MIC #3) was > 64 µg/mL and the MIC (Klebsiella pneumoniae M6; Klebsiella pneumoniae M6, replicate 1, read-out: MIC #1) was > 64 µg/mL. For the same molecule, the MIC (Klebsiella pneumoniae M6; Klebsiella pneumoniae M6, replicate 2, read-out: MIC #2) was > 64 µg/mL, the MIC (Klebsiella pneumoniae M6; Klebsiella pneumoniae M6, replicate 3, read-out: MIC #3) was > 64 µg/mL and the MIC ([2]; Klebsiella pneumoniae 13368, replicate 1, read-out: MIC #1) was > 64 µg/mL. The MIC ([2]; Klebsiella pneumoniae 13368, replicate 2, read-out: MIC #2) was > 64 µg/mL, the MIC ([2]; Klebsiella pneumoniae 13368, replicate 3, read-out: MIC #3) was > 64 µg/mL and the MIC ([3]; Enterococcus faecium 12204, replicate 1, read-out: MIC #1) was > 64 µg/mL. The MIC ([3]; Enterococcus faecium 12204, replicate 2, read-out: MIC #2) was > 64 µg/mL, the MIC ([3]; Enterococcus faecium 12204, replicate 3, read-out: MIC #3) was > 64 µg/mL and the MIC ([4]; Pseudomonas aeruginosa PA01, replicate 1, read-out: MIC #1) was > 64 µg/mL. For the same molecule, the MIC ([4]; Pseudomonas aeruginosa PA01, replicate 2, read-out: MIC #2) was > 64 µg/mL, the MIC ([4]; Pseudomonas aeruginosa PA01, replicate 3, read-out: MIC #3) was > 64 µg/mL and the MIC ([5]; Acinetobacter baumannii 17978, replicate 1, read-out: MIC #1) was > 64 µg/mL. The MIC ([5]; Acinetobacter baumannii 17978, replicate 2, read-out: MIC #2) was > 64 µg/mL, the MIC ([5]; Acinetobacter baumannii 17978, replicate 3, read-out: MIC #3) was > 64 µg/mL and the MIC ([6]; Escherichia coli NCTC12923, replicate 1, read-out: MIC #1) was > 64 µg/mL. The MIC ([6]; Escherichia coli NCTC12923, replicate 2, read-out: MIC #2) was > 64 µg/mL, the MIC ([6]; Escherichia coli NCTC12923, replicate 3, read-out: MIC #3) was > 64 µg/mL and the MIC ([7]; Pseudomonas aeruginosa 13437, replicate 1, read-out: MIC #1) was > 64 µg/mL. The MIC ([7]; Pseudomonas aeruginosa 13437, replicate 2, read-out: MIC #2) was > 64 µg/mL, the MIC ([7]; Pseudomonas aeruginosa 13437, replicate 3, read-out: MIC #3) was > 64 µg/mL and the MIC (EMRSA-15; EMRSA-15, replicate 1, read-out: MIC #1) was > 64 µg/mL. For the same molecule, the MIC (EMRSA-15; EMRSA-15, replicate 2, read-out: MIC #2) was > 64 µg/mL, the MIC (EMRSA-15; EMRSA-15, replicate 3, read-out: MIC #3) was > 64 µg/mL and the MIC ([8]; Enterococcus faecalis 12201, replicate 1, read-out: MIC #1) was > 64 µg/mL. The MIC ([8]; Enterococcus faecalis 12201, replicate 2, read-out: MIC #2) was > 64 µg/mL, the MIC ([8]; Enterococcus faecalis 12201, replicate 3, read-out: MIC #3) was > 64 µg/mL and the MIC (EMRSA-16; EMRSA-16, replicate 1, read-out: MIC #1) was > 64 µg/mL. The MIC (EMRSA-16; EMRSA-16, replicate 2, read-out: MIC #2) was > 64 µg/mL, the MIC (EMRSA-16; EMRSA-16, replicate 3, read-out: MIC #3) was > 64 µg/mL and the MIC ([9]; replicate 1, read-out: MIC #1) was > 64 µg/mL. The MIC ([9]; replicate 2, read-out: MIC #2) was > 64 µg/mL, the MIC ([9]; replicate 3, read-out: MIC #3) was > 64 µg/mL and the MIC ([10]; Enterococcus faecalis 775, replicate 1, read-out: MIC #1) was > 64 µg/mL. For the same molecule, the MIC ([10]; Enterococcus faecalis 775, replicate 2, read-out: MIC #2) was > 64 µg/mL and the MIC ([10]; Enterococcus faecalis 775, replicate 3, read-out: MIC #3) was > 64 µg/mL.
In the case of `COc1ccc(/C=C2\NC(=O)N(CC(=O)O)C2=O)cc1` [Compound 42, (Z)-2-(4-(4-Methoxybenzylidene)-2,5-dioxoimidazolidin-1-yl)acetic Acid], the “% Viability Remaining 1” value ([11]; HEK293, 12.5 μM) is reported as 104%, the “% Viability Remaining 2” value ([11]; HEK293, 12.5 μM) is reported as 93.9% and the “% Viability Remaining 3” value ([11]; HEK293, 12.5 μM) is reported as 87.6%. For the same molecule, the “% Viability Remaining 1” value ([11]; HEK293, 25 μM) was 110%, the “% Viability Remaining 2” value ([11]; HEK293, 25 μM) was 93.9% and the “% Viability Remaining 3” value ([11]; HEK293, 25 μM) was 87.6%. The “% Viability Remaining 1” value ([11]; HEK293, 50 μM) was 80.6%, the “% Viability Remaining 2” value ([11]; HEK293, 50 μM) was 94.5% and the “% Viability Remaining 3” value ([11]; HEK293, 50 μM) was 98.9%. For the same molecule, the “% Viability Remaining 1” value ([11]; HEK293, 100 μM) was 110%, the “% Viability Remaining 2” value ([11]; HEK293, 100 μM) was 107% and the “% Viability Remaining 3” value ([11]; HEK293, 100 μM) was 115%. The “% Viability Remaining 1” value ([11]; HEK293, 200 μM) was 94.0%, the “% Viability Remaining 2” value ([11]; HEK293, 200 μM) was 99.6% and the “% Viability Remaining 3” value ([11]; HEK293, 200 μM) was 94.1%. The “% Viability Remaining 1” value ([11]; HEK293, 400 μM) was 105%, the “% Viability Remaining 2” value ([11]; HEK293, 400 μM) was 103% and the “% Viability Remaining 3” value ([11]; HEK293, 400 μM) was 80.9%. For the same molecule, the “toxicity to HEK293 cells (in words)” value ([11]; HEK293, MTT, up to 400 μM (Defensin 100 μM)) was “effectively nontoxic”, the “% viability 1” value ([12]; HepG2, 12.5 μM) was 81.0% and the “% viability 2” value ([12]; HepG2, 12.5 μM) was 99.1%. For the same molecule, the “% viability 3” value ([12]; HepG2, 12.5 μM) was 70.9%, the “% viability 1” value ([12]; HepG2, 25 μM) was 81.0% and the “% viability 2” value ([12]; HepG2, 25 μM) was 99.1%. The “% viability 3” value ([12]; HepG2, 25 μM) was 70.9%, the “% viability 1” value ([12]; HepG2, 50 μM) was 88.8% and the “% viability 2” value ([12]; HepG2, 50 μM) was 98.3%. For the same molecule, the “% viability 3” value ([12]; HepG2, 50 μM) was 90.4%, the “% viability 1” value ([12]; HepG2, 100 μM) was 88.0% and the “% viability 2” value ([12]; HepG2, 100 μM) was 86.0%. For the same molecule, the “% viability 3” value ([12]; HepG2, 100 μM) was 84.1%, the “% viability 1” value ([12]; HepG2, 200 μM) was 98.4% and the “% viability 2” value ([12]; HepG2, 200 μM) was 101%. For the same molecule, the “% viability 3” value ([12]; HepG2, 200 μM) was 82.4%, the “% viability 1” value ([12]; HepG2, 400 μM) was 80.9% and the “% viability 2” value ([12]; HepG2, 400 μM) was 82.9%. For the same molecule, the “% viability 3” value ([12]; HepG2, 400 μM) was 82.1%, the “toxicity to HepG2 cells (in words)” value ([12]; HepG2, MTT, up to 400 μM (Defensin 100 μM)) was “effectively nontoxic” and the IC50 (A. thaliana DHDPS) was 66.1 µM.
